Data on 6 compounds can be found in BindingDB's records for doi:10.1046/j.1471-4159.1998.70052147.x (F. Hoffmann-La Roche, 1998).

Counter-ions that a name gives are not always drawn.

The assay deals with Glutamate receptor ionotropic, NMDA 1 (Rattus norvegicus, UniProt P35439).
With `OC(CN1CCC(Cc2ccc(F)cc2)CC1)c1ccc(Cl)cc1` (stereo unspecified), the inhibition constant (Ki) worked out at 300 nM.
For `NCCCCNCCCN` [spermidine], the Ki was above 10000 nM.
With `COc1cc2c(cc1O)C(CCc1ccc(Cl)cc1)N(C)CC2` (stereo unspecified) [Ro 04-5595], the inhibition constant Ki is 20 nM.
For the compound `NCCCNCCCCNCCCN` [N,N''-bis(3-azanylpropyl)butane-1,4-diamine;hydrochloride], the Ki was 2000 nM.
Turning to `C[C@@H](CN1CCC(Cc2ccccc2)CC1)[C@@H](O)c1ccc(O)cc1`, the inhibition constant (Ki) came to 6 nM. This Ki is about 330-fold lower than that of the compound before.
The compound `C[C@@H]([C@@H](O)c1ccc(O)cc1)N1CCC(O)(c2ccccc2)CC1` [1-[(1S,2S)-2-Hydroxy-2-(4-hydroxy-phenyl)-1-methyl-ethyl]-4-phenyl-piperidin-4-ol] registered a Ki of 8 nM. This Ki and that of the compound before are within 1.5-fold of each other.
